Results from article PMC11990924, “Inhibition of Tyrosinase and Melanogenesis by Carboxylic Acids: Mechanistic Insights and Safety Evaluation” (Molecules, 2025).
In brackets after ≈: the same amount, converted by molar mass. Where two headings read alike, the source gives them in different places.

Columns and labels:
[1] = Cell viability of B16-F10 by MTT; assay type: cell-based; settings: mouse, B16-F10 cells
Protocol: B16-F10 cells were seeded in 96-well plates at a density of 1 × 10^5 cells/mL and cultured at 37 °C with 5% CO2 for 24 h. Subsequently, various concentrations of carboxylic acids were added, and the cells were further incubated for 24 h. Then, 6 μL of MTT (5 mg/mL) was added, and the cells were cultured for an additional 4 h. Afterward, 200 μL of DMSO was added to dissolve the formazan crystals by gently pipetting up and down. The absorbance at 570 nm (OD570) was measured using a microplate reader (Infinite 200Pro, Tecan), with deionized water serving as the control. The cell viability was calculated with Equation (2): (2) [(OD570 of sample)/OD570 of control]×100%

[2] = pH of carboxylic acid mixed with PBS buffer, without tyrosinase; assay type: physicochemical; settings: in PBS buffer, absence of tyrosinase
mushroom tyrosinase = mushroom tyrosinase (Agaricus bisporus, UniProt C7FF04); experiment: Inhibition of mushroom tyrosinase activity (L-DOPA, OD475); assay type: biochemical; settings: read-out: tyrosinase inhibition rate
Sequence of mushroom tyrosinase (C7FF04 2-392): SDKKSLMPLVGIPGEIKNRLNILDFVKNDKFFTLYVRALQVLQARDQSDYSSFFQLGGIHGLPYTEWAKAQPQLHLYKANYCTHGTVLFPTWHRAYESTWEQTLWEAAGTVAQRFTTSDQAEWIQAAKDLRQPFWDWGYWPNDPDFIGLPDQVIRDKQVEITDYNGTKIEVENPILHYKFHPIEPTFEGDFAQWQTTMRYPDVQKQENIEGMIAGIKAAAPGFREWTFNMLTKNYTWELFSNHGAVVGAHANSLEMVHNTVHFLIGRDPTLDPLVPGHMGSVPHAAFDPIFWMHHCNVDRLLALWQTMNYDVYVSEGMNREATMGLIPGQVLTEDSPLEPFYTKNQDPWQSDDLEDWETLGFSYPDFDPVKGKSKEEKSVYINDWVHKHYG
Protocol: L-DOPA solution (5 mM) and tyrosinase (400 U/mL) (Sigma-Aldrich, St. Louis, MO, USA) were prepared in PBS buffer (pH 7.4) (Qingdao Hope Bio-Technology Co., Ltd., Qingdao, China). A reaction mixture was prepared by combining 240 μL of carboxylic acid at various concentrations, 360 μL of L-DOPA solution, and 120 μL of tyrosinase. […] Deionized water was used as the control.

tyrosinase [3] = target: T1, tyrosinase (Agaricus bisporus, UniProt C7FF04); experiment: Kinetic analysis of tyrosinase (Lineweaver–Burk); assay type: biochemical, mushroom; settings: for inhibition mechanism: Lineweaver–Burk double-reciprocal plots
T1 construct: purchased Sigma-Aldrich
T1 sequence (C7FF04 1-392 limits assumed): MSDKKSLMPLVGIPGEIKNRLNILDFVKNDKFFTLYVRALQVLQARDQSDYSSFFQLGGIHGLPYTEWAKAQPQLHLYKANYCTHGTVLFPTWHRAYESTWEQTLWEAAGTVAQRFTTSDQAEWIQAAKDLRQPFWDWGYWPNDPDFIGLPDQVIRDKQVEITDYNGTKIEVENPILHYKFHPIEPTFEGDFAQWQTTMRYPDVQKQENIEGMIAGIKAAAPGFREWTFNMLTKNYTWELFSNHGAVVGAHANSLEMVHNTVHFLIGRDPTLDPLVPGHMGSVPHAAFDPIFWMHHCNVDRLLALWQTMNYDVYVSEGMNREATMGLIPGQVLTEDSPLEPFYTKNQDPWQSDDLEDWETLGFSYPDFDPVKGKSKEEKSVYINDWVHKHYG
Protocol: L-DOPA solutions at various concentrations (0.5, 1, 2, and 4 mM) were prepared in PBS buffer (pH 7.4) and mixed with carboxylic acids at different concentrations and tyrosinase (final concentration of 60 U/mL). […] The reaction rates were calculated based on the OD values. To analyze the inhibition types of the four carboxylic acids on tyrosinase, double-reciprocal Lineweaver–Burk plots were constructed with 1/v (reaction rate) as the y-axis and 1/[S] (substrate concentration) as the x-axis. The maximum reaction velocity (Vmax) and Michaelis constant (Km) were determined using GraphPad Prism 10 (GraphPad Software, Massachusetts, USA).

B16-F10 cells = experiment: Melanin content analysis of B16-F10 cells (α-MSH stimulated); assay type: cell-based; settings: Mus musculus, B16-F10, α-MSH 1 μM, 48 h, read-out: melanin inhibition rate; for inhibition at 6000 µM: 6 mM
Protocol: A 900 μL cell suspension with an approximate density of 50% confluence was seeded into a 12-well plate and cultured for 24 h at 37 °C with 5% CO2. Subsequently, various concentrations of carboxylic acids were added, and the cells were further incubated for 1 h. Then, 1 μL of 1 mM α-melanocyte-stimulating hormone (α-MSH) solution was added to achieve a final concentration of 1 μM, and the cells were cultured for an additional 48 h at 37 °C with 5% CO2 to stimulate melanogenesis. Afterward, the cells were digested with trypsin, collected by centrifugation at 10,000 rpm for 5 min (Andreas Hettich GmbH & Co., KG, Tuttlingen, Germany), and the supernatant was discarded. Each tube was treated with 200 μL of 1 M NaOH solution and incubated in a water bath at 60 °C for 20 min. Following incubation, the samples were vortexed to ensure homogeneity, and 200 μL of each sample was transferred to a 96-well plate. The absorbance at 405 nm (OD405) was measured using a microplate reader (Infinite 200Pro, Tecan), and the data were recorded to calculate the melanin content, with deionized water serving as the control. The reduction in melanin content was calculated with Equation (3):(3) [(OD405 of control−OD405 of sample)/OD405 of control]×100%

[4] = L-DOPA auto-oxidation analysis; settings: for L-DOPA auto-oxidation inhibition rate: 1.5 mM; for IC50: 37 °C, 12 h, calculated using SPSS, read-out: IC50 for L-DOPA auto-oxidation inhibition
Protocol: A 5 mM L-DOPA solution was prepared in PBS buffer (pH 7.4). Subsequently, 240 μL of carboxylic acid solution, 360 μL of L-DOPA solution, and 120 μL of PBS buffer were sequentially mixed. The mixture was then incubated at 37 °C for 12 h. […] Deionized water was used as the control. The inhibition of L-DOPA auto-oxidation was calculated using the same method as the melanin content analysis.

tyrosinase [5] = target: T1, tyrosinase; experiment: Fluorescence spectra analysis of tyrosinase; assay type: binding, mushroom; settings: 6 mM; excitation 280 nm
Protocol: Carboxylic acid solutions at various concentrations were mixed with PBS buffer and tyrosinase (final concentration of 60 U/mL) and then transferred to a black 96-well plate. Fluorescence analysis was conducted using a microplate reader (Infinite 200Pro, Tecan).

[6] = cited from earlier work
[7] = target: tyrosinase from BioVision, Inc. (claimed to be of human origin); parameters: method as in PMID 38909081; settings: cited from earlier work
guinea pigs = settings: cited from earlier work
tyrosinase and Tyrp 1/2 = settings: Western blot; 300 and 500 μg/mL, 48 h intervals during 5 d culture; cited from earlier work
rats = settings: cited from earlier work

| SMILES | viability at 24 h, 6 mM [1] | pH ([2]; 6 mM) | inhibition mechanism (tyrosinase [3]) | inhibition at 6000 µM (B16-F10 cells) | L-DOPA auto-oxidation inhibition rate [4] | IC50 [4] | decrease of tyrosinase fluorescence intensity (tyrosinase [5]) | IC50 DOPA auto-oxidation inhibition [6] | further results |
| --- | --- | --- | --- | --- | --- | --- | --- | --- | --- |
| O=C(O)[C@@H]1CCC(O)=N1 [L-pyroglutamic acid] | > 90% | 3.7 | competitive inhibition | 27.8% | exceeding 80% | 660 µM | 48.6% |  | inhibition at 6000 µM (mushroom tyrosinase; 6 mM): > 80%; Ki (tyrosinase [3]): 1950 µM |
| O=C1O[C@H]([C@@H](O)CO)C(O)=C1O [ascorbic acid] |  |  |  |  |  |  |  | 989.6 µg/mL (≈ 5.62 mM) |  |
| O=c1cc(CO)occ1O [kojic acid, reference compound] |  |  |  |  |  |  |  | 418.5 µg/mL (≈ 2.94 mM) | IC50 [7]: 9.27 µM |
| CC(O)C(=O)O (centres unmarked) [lactic acid] | > 90% | around 6 | mixed-type inhibition | 14.1% | exceeding 80% | 570 µM | 45.0% |  | oral LD50 (guinea pigs): 1810 mg/kg; viability at 24 h, 12 mM ([1]; 12 mM): 97%; pH ([2]; 12 mM): 3.6; inhibition at 6000 µM (mushroom tyrosinase): 47%; inhibition at 12000 µM (mushroom tyrosinase): 89%; regulatory effect on melanogenesis-related proteins (tyrosinase and Tyrp 1/2) (tyrosinase and Tyrp 1/2): no significant regulatory effects; Ki (tyrosinase [3]; GraphPad Prism, mixed-model or competitive model, read-out: inhibition constant (Ki)): 2710 µM; inhibition constant (KIS) for enzyme–substrate complex (tyrosinase [3]; mixed-type inhibitors): 17.032 mM; inhibition at 12000 µM (B16-F10 cells; 12 mM): 29.4%; oral LD50 (rats): 3730 mg/kg |
